Assay results taken from patent US9793566B2, “Aqueous electrolytes for redox flow battery systems” (Battelle Memorial Institute, priority 2015, dated 2017).
In brackets after ≈: the same amount, converted by molar mass.

Legend:
[1] = Electrolyte stability: repeated cycling overnight, cyclic voltammograms before and after; type: physicochemical; details: 300 mM DMTU, 0.45 M HCl, no significant peak changes in the cyclic voltammograms
Text: Cyclic voltammograms were obtained before and after the overnight test—initial E (V)=0, high E (V)=1, low E (V)=−0.8, initial P/N=P, scan rate (V/s)=0.05, segment=3, sample interval (V)=0.001, quiet time (s)=2, […].

[2] = Cyclic voltammetry comparison of N-methyl thiourea and N,N′-dimethyl thiourea catholytes; type: physicochemical; details: 200 mM in 1 M NaCl, scan rate 0.05 V/s
Procedure: Aqueous catholytes comprising 200 mM MTU and 200 mM DMTU were compared. Each catholyte also included 1 M NaCl. Cyclic voltammetry was performed under the following conditions: initial E (V)=0, high E (V)=1, low E (V)=−0.75, initial P/N=P, scan rate (V/s)=0.05, segment=7, sample interval (V)=0.001, quiet time (s)=2, sensitivity (A/V)=0.001.

[3] = physchem; details: aqueous buffer
[4] = Cyclic voltammetry, redox couple potential; type: physicochemical; details: neutral aqueous solution
Procedure: Cyclic voltammetry was performed at 0.05 V/s with a glassy carbon working electrode.

stability in acid solutions [1] | solubility [3] [mM] | SMILES | kinetics, reversibility and overpotential compared with MTU [2] | one electron redox couple [4] [V vs. SHE]
good stability | ~4000 (≈ 417 mg/mL) | CNC(=S)NC [DMTU, N,N′-dimethyl thiourea] | better kinetics, with better reversibility and a lower overpotential | –
– | – | CC1(C)CC(O)CC(C)(C)N1[O] [HTMPO, 4-hydroxy-2,2,6,6-tetramethylpiperidine 1-oxyl] | – | 0.75
